Patent US20220387604A1, “SELECTIVE DUAL HISTONE DEACETYLASE 6/8 (HDAC6/8) DEGRADERS AND METHODS OF USE THEREOF” (DANA-FARBER CANCER INSTITUTE, INC., priority 2019, published 2022)

Tests used:
[1] = target: T1, HDAC2 (Homo sapiens, UniProt Q92769); test: HDAC enzymatic assay (Reaction Biology), HDAC2; format: biochemical
T1 construct: purchased Reaction Biology
Description: Compound 1 was tested in an enzymatic assay from Reaction Biology® against 10 HDAC isoforms. The IC50 values were derived from a 10-dose response curve.
Base Reaction buffer: 50 mM Tris-HCl, pH8.0, 137 mM NaCl, 2.7 mM KCl, and 1 mM MgCl2, Add fresh: 1 mg/ml BSA, 1% DMSO
Fluorogenic HDAC General Substrate (HDAC1, HDAC2, HDAC3, HDAC6, HDAC10, and HDAC11): 50 μM, Arg-His-Lys-Lys(Ac)-AMC
1. Delivered 2× enzyme in wells of reaction plate except in the control wells and added buffer to control wells. 2. Delivered compounds in 100% DMSO into the enzyme mixture by Acoustic technology (Echo550; nanoliter range). Spin down and pre-incubation. 3. Delivered 2× Substrate Mixture (Fluorogenic HDAC Substrate and co-factor if applicable) in all reaction wells to initiate the reaction. Spin and shake. 4. Incubated for 30 min for Class 2A, 1 h for HDAC1, 2, 3, and 6, and 2 h for the rest of HDAC isoforms and SIRTs at 30° C. with seal.
5. Added Developer with Trichostatin A (or Nicotinamide for SIRTs) to stop the reaction and to generate fluorescent color. 6. The fluorescence that was generated was detected with excitation (Ex) at […] and emission (Em) at 460 nM by the EnVision Multilabel Plate Reader (PerkinElmer®, Santa Clara, Calif., USA).
IC50 values were derived from a 10-dose response curve.

[2] = target: T2, CRBN (Homo sapiens, UniProt Q96SW2); test: Cellular CRBN engagement assay (competition with dBET6, BRD4BD2-eGFP reporter, Flip-In 293 cells); format: cell-based; settings: titrated in the presence of 100 nM dBET6, 5 h, Flip-In 293 cells expressing BRD4BD2-eGFP/mCherry
T2 construct: endogenous in cells; host or cells: Flip-In 293 cells stably expressing BRD4BD2-eGFP-P2A-mCherry
Description: BRD4BD2 was subcloned into mammalian pcDNA5/FRT Vector (Ampicillin and Hygromycin B resistant) modified to contain MCS-eGFP-P2A-mCherry. Stable cell lines expressing eGFP-protein fusion and mCherry reporter were generated using Flip-In 293 system. Plasmid (0.3 μg) and pOG44 (4.7 μg) DNA were preincubated in 100 μL of Opti-MEM I (Gibco, Life Technologies™) media containing 0.05 mg/ml Lipofectamine 2000 (Invitrogen™) for 20 min and added to Flip-In 293 cells containing 1.9 ml of DMEM media (Gibco, Life Technologies™) per well in a 6-well plate format (Falcon, 353046). Cells were propagated after 48 h and transferred into a […] (Coming, 430165) in DMEM media containing 50 μg/ml of Hygromycin B (REF 10687010, Invitrogen™) as a selection marker. Following 2-3 passage cycles, FACS (FACSAria II, BD) was used to enrich for cells expressing eGFP and mCherry.
Cells were seeded at 30-50% confluency in either 24, 48 or 96 well plates (3524, 3548, 3596 respectively, Costar) a day before compound treatment. The inventive compounds were titrated in the presence of 100 nM dBET6 and then were incubated with cells for 5 h following trypsinization and resuspension in DMEM media, transferred into 96-well plates (353910, Falcon) and analyzed by flow cytometer (Guava® easyCyte™ HT, Millipore). Signal from at least 3000 events per well was acquired and the eGFP and mCherry florescence monitored. Data was analyzed using FlowJo® (FlowJo®, LCC). Forward and side scatter outliers, frequently associated with cell debris, were removed leaving >90% of total cells, followed by removal of eGFP and mCherry signal outliers, leaving 88-90% of total cells creating the set used for quantification. The eGFP protein abundance relative to mCherry was then quantified as a ten-fold amplified ratio for each individual cell using the formula: 10× eGFP/mCherry. The median of the ratio was then calculated per set, normalized to the median of the DMSO ratio. […]

Row | IC50 [2] | Compound | IC50 ([1]; 10-dose response curve, read-out: Compound IC50 (M), HDAC2) | inhibition of enzymatic activity of HDAC2 (in words) ([1]; summary of Table 1)
1 | 10 µM | O=C(/C=C/c1ccc(CN(CCCCCNc2cccc3c2C(=O)N(C2CCC(=O)NC2=O)C3=O)CCc2c[nH]c3ccccc23)cc1)NO (centres unmarked) [Compound 3, (E)-3-(4-(((2-(1H-indol-3-yl)ethyl)(5-((2-(2,6-dioxopiperidin-3-yl)-1,3-dioxoisoindolin-4-yl)amino)pentyl)amino)methyl)phenyl)-N-hydroxyacrylamide] | – | –
2 | 19.2 µM | O=C(/C=C/c1ccc(CN(CCOCCNc2cccc3c2C(=O)N(C2CCC(=O)NC2=O)C3=O)CCc2c[nH]c3ccccc23)cc1)NO (centres unmarked) [Compound 2, (E)-3-(4-(((2-(1H-indol-3-yl)ethyl)(2-(2-((2-(2,6-dioxopiperidin-3-yl)-1,3-dioxoisoindolin-4-yl)amino)ethoxy)ethyl)amino)methyl)phenyl)-N-hydroxyacrylamide] | – | –

Row | Compound | IC50 [2] | IC50 ([1]; 10-dose response curve, read-out: Compound IC50 (M), HDAC2) | inhibition of enzymatic activity of HDAC2 (in words) ([1]; summary of Table 1)
3 | O=C(/C=C/c1ccc(CN(CCOCCOCCNc2cccc3c2C(=O)N(C2CCC(=O)NC2=O)C3=O)CCc2c[nH]c3ccccc23)cc1)NO (centres unmarked) [Compound 1, (E)-3-(4-(((2-(1H-indol-3-yl)ethyl)(2-(2-(2-((2-(2,6-dioxopiperidin-3-yl)-1,3-dioxoisoindolin-4-yl)amino)ethoxy)ethoxy)ethyl)amino)methyl)phenyl)-N-hydroxyacrylamide] | 11.7 µM | 3.48e-06 M | Moderate inhibition
